In PMC4209782 (Biochemical Journal, 2014):

Columns and labels:
[1] = system: 4EBP1 phosphorylation (Thr37, Thr46 and Ser65); test: 4E-BP1 phosphorylation (mTORC1 sites), immunoblot of treated U2OS cells; format: cell-based; conditions: AZD8055 0.1 μM
Description: (§1) U20S cell line was kindly provided by John Rouse (MRC Protein Phosphorylation and Ubiquitylation Unit, University of Dundee, Dundee, U.K.). Cells were cultured in DMEM (Dulbecco's modified Eagle's medium) supplemented with 10% (v/v) FBS, 2 mM L-glutamine, 100 U/ml penicillin and 0.1 mg/ml streptomycin. cDNA for mouse Hrs (residues 147–223 ×2 joined by a linker) were cloned into a pBABE.puro vector. […] . The virus was harvested 48 h after transfection and applied to U20S cells in the presence of 10 μg/ml polybrene. Cells were selected with 10 μg/ml puromycin before single cell colony selection to identify low expression GFP–FYVEHrs clones. U2OS Flp/In cell line was kindly provided by John Rouse. Cells were cultured in McCoy medium supplemented with 10% (v/v) FBS, 2 mM L-glutamine, 100 U/ml penicillin and 0.1 mg/ml streptomycin. Stable cell lines expressing doxycycline-inducible proteins were generated using the Flp-In™ T-REx™ system (Invitrogen). Stable transfected clones were selected using 0.01 mM hygromycin in cell medium. Protein expression was induced by adding 0.01 mg/ml doxycycline in the medium for 24 h prior to cell lysis. Inhibitor treatment was carried out as described in the Figure legends. The cells were lysed in buffer containing 50 mM Tris/HCl (pH 7.5), 150 mM NaCl, 1 mM EDTA, 1 mM EGTA, 1 mM sodium orthovanadate, 10 mM sodium glycerophosphate, 50 mM sodium fluoride, 10 mM sodium pyrophosphate, 0.27 M sucrose, 0.1% 2-mercaptoethanol, 1 mM benzamidine and 0.1 mM PMSF. Lysates were clarified by centrifugation at 16000 g for 10 min at 4°C. Protein concentration was calculated using Bradford assay (Thermo Scientific). Immunoblotting and immunoprecipitation were performed using standard procedures. The signal was developed using the ECL Western Blotting Detection kit (GE Healthcare) on Hyperfilm ECL film (GE Healthcare). […]

[2] = system: Akt (Thr308, Ser473) and Akt substrate PRAS40 (Thr246) phosphorylation; test: Akt and PRAS40 phosphorylation, immunoblot of treated U2OS cells; format: cell-based; conditions: 1 h
Description: U20S cell line was kindly provided by John Rouse (MRC Protein Phosphorylation and Ubiquitylation Unit, University of Dundee, Dundee, U.K.). Cells were cultured in DMEM (Dulbecco's modified Eagle's medium) supplemented with 10% (v/v) FBS, 2 mM L-glutamine, 100 U/ml penicillin and 0.1 mg/ml streptomycin. cDNA for mouse Hrs (residues 147–223 ×2 joined by a linker) were cloned into a pBABE.puro vector. […] . The virus was harvested 48 h after transfection and applied to U20S cells in the presence of 10 μg/ml polybrene. Cells were selected with 10 μg/ml puromycin before single cell colony selection to identify low expression GFP–FYVEHrs clones. U2OS Flp/In cell line was kindly provided by John Rouse. Cells were cultured in McCoy medium supplemented with 10% (v/v) FBS, 2 mM L-glutamine, 100 U/ml penicillin and 0.1 mg/ml streptomycin. Stable cell lines expressing doxycycline-inducible proteins were generated using the Flp-In™ T-REx™ system (Invitrogen). Stable transfected clones were selected using 0.01 mM hygromycin in cell medium. Protein expression was induced by adding 0.01 mg/ml doxycycline in the medium for 24 h prior to cell lysis. Inhibitor treatment was carried out as described in the Figure legends. The cells were lysed in buffer containing 50 mM Tris/HCl (pH 7.5), 150 mM NaCl, 1 mM EDTA, 1 mM EGTA, 1 mM sodium orthovanadate, 10 mM sodium glycerophosphate, 50 mM sodium fluoride, 10 mM sodium pyrophosphate, 0.27 M sucrose, 0.1% 2-mercaptoethanol, 1 mM benzamidine and 0.1 mM PMSF. Lysates were clarified by centrifugation at 16000 g for 10 min at 4°C. Protein concentration was calculated using Bradford assay (Thermo Scientific). Immunoblotting and immunoprecipitation were performed using standard procedures. The signal was developed using the ECL Western Blotting Detection kit (GE Healthcare) on Hyperfilm ECL film (GE Healthcare).
The following antibodies were raised in sheep, by the DSTT (Division of Signal Transduction Therapy) at the University of Dundee, and affinity-purified against the indicated antigens: anti-Akt1 (S695B, third bleed; raised against residues 466–480 of human Akt1: […]), anti-PRAS40 (proline-rich Akt substrate 40 kDa) (S115B, first bleed; raised against residues 238–256 of human PRAS40: […]), anti-(phospho-PRAS40 Thr^246) (S114B, second bleed; raised against residues 240–251 of human PRAS40: CRPRLNTpSDFQK), anti-NDRG1 (N-Myc downstream-regulated gene-1) (S276B third bleed; raised against full-length human NDRG1) and anti-SGK3 [S037D second bleed; raised against human SGK3 PX domain comprising residues 1–130 of SGK3]. […] Anti-(phospho-SGK hydrophobic motif [Ser^486 in SGK3]) antibody (sc16745) was from Santa Cruz Biotechnology and total SGK1/2 antibody was from Sigma (5188) as was the mouse anti-FLAG antibody. Secondary antibodies coupled to HRP (horseradish peroxidase) were obtained from Thermo Scientific.
. […] (B and C) As in (A) except cells were treated with the indicated doses of the BKM120 class I PI3K inhibitor.

[3] = system: SGK3; test: SGK3 kinase activity after immunoprecipitation from inhibitor-treated U2OS cells (Crosstide assay); format: cell-based
[4] = system: Vps34; conditions: cited from earlier work
[5] = system: SGK3 localization on endosomes in U2OS cells; test: SGK3–GFP endosomal localization, time-lapse microscopy in U2OS cells
Description: (§2) Cells were cultured on glass coverslips and processed for immunocytochemistry using standard protocols. […] For experiments quantifying co-localization of SGK3–GFP with EEA1 (early endosome antigen 1) and localization GFP–FYVEHrs in response to inhibitor treatment, cells were permeabilized via one freeze–thaw cycle in liquid nitrogen and subsequently fixed. The following primary antibodies were used: rabbit anti-EEA1 (1:500 dilution; Life Technologies) and mouse anti-GFP (1:1000 dilution; Life Technologies) antibodies. […] Imaging was conducted using a Nikon Eclipse Ti-S microscope (×40 objective) or a Zeiss LSM710 laser scanning confocal microscope [×63 Plan-Apochromat oil immersion objective; 1.40 NA (numerical aperture)] as described in the Figure legends. Time-lapse microscopy was carried out on the same microscope using a heated incubator, heated stage plate and CO2 controller (Pecon) to maintain the cells.
Images were acquired every 0.5 min up to 60 min. […] Post-acquisition, image analysis was conducted with Volocity 6.3 (PerkinElmer).
Images were taken using a Nicon Eclipse Ti-S microscope with ×40 objective (upper panel). […] Pictures were taken with Zeiss 710 microscope using ×100 objective. Mander's correlation coefficient in 112 cells was calculated using the Volocity 6.3 program. […] Time-lapse microscopy was performed on Zeiss 710 microscope using ×63 objective. Representative images are shown and similar results were obtained in two experiments.

[6] = system: PtdIns(3,4,5)P3/PtdIns(3,4)P2 (GFP–PHAkt1 probe) in U2OS cells; test: IGF1-induced plasma membrane recruitment of GFP–PHAkt1 in U2OS cells; conditions: 1 μM VPS34-IN1 or 0.5 μM GDC-0941 for 1 h, IGF 100 ng/ml 15 min
Description: as §2
(§3) Time-lapse microscopy was performed on Zeiss 710 microscope using ×63 objective. […] The cells were fixed with 4% paraformaldehyde and images were taken using Zeiss 710 microscope at ×63 objective.

[7] = system: endosomal PtdIns(3)P (GFP–2×FYVEHrs probe) in U2OS cells; test: GFP–2×FYVEHrs probe localization, live imaging (time-lapse) in U2OS cells
Description: as §2
Images were acquired every 0.5 min up to 60 min. Inhibitors were added after acquiring two images, except for VPS34-IN1 that was added after the first image taken. Post-acquisition, image analysis was conducted with Volocity 6.3 (PerkinElmer).
as §3

[8] = system: NDRG1 phosphorylation at Thr346; test: NDRG1 Thr346 phosphorylation, immunoblot of treated U2OS cells; format: cell-based; conditions: 1 h
Description: as §1, with “The cells were lysed in buffer containing 50 mM Tris/HCl (pH 7.5), 150 mM NaCl, 1 mM EDTA, 1 mM EGTA, 1 mM sodium orthovanadate, 10 mM sodium glycerophosphate, 50 mM sodium fluoride, 10 mM sodium pyrophosphate, 0.27 M sucrose, 0.1% 2-mercaptoethanol, 1 mM benzamidine and 0.1 mM PMSF. Lysates were clarified by centrifugation at 16000 g for 10 min at 4°C.” left out, “Scientific).” for “Scientific). Immunoblotting and immunoprecipitation were performed using standard procedures. The signal was developed using the ECL Western Blotting Detection kit (GE Healthcare) on Hyperfilm ECL film (GE Healthcare).”

[9] = system: SGK3 phosphorylation (Thr320, Ser486); test: SGK3 T-loop and hydrophobic motif phosphorylation, immunoblot of treated U2OS cells; format: cell-based; conditions: for SGK3 T-loop and hydrophobic motif phosphorylation: 1 h, U2OS, immunoblot
Description: as §1

[10] = system: Dundee panel of 140 protein kinases; test: Dundee protein kinase profiling panel; conditions: 1 μM, 140 kinases
Description: (C) Protein kinase profiling of the VPS34-IN1 at a single concentration of 1 μM carried out against the Dundee panel of 140 protein kinases at the International Centre for Protein Kinase Profiling. […] Abbreviations and assay conditions used for each kinase are defined at http://www.kinase-screen.mrc.ac.uk.

[11] = system: SGK2; test: SGK2 kinase activity after immunoprecipitation from inhibitor-treated U2OS cells; conditions: 1 h, U2OS expressing SGK2
Description: In vitro kinase activity of SGK3 and SGK2 was assayed by measuring [γ-^32P]ATP incorporation into Crosstide substrate peptide [[sequence]]. SGK3 with a C-terminal FLAG-tag was immunoprecipitated from doxycycline-induced U2OS Flp/In cell lines. Immunoprecipitates were washed in sequence with lysis buffer containing high salt concentration (500 mM NaCl), lysis buffer and buffer A (50 mM Tris/HCl, pH 7.5, and 0.1 mM EGTA). Reactions were carried in 40 μl of total volume containing 0.1 mM [γ-^32P]ATP (400–1000 c.p.m./pmol), 10 mM magnesium acetate and 30 μM Crosstide peptide. Reactions were terminated by adding 10 μl of 0.1 mM EDTA and spotting 40 μl of the reaction mixture on P81 paper which were immediately immersed into 50 mM orthophosphoric acid. Papers were washed several times in 50 mM orthophosphoric acid, rinsed in acetone and air dried. Radioactivity was quantified by Cerenkov counting. One unit of enzyme activity was defined as the amount of enzyme that catalyses incorporation of 1 nmol of [γ-^32P]ATP into the substrate over 1 min.
The cells were lysed and SGK3 immunoprecipitated with anti-FLAG antibody. […]

[12] = system: panel of 19 lipid kinases (includes class I PI3Ks); test: Dundee lipid kinase profiling panel; format: biochemical; conditions: 1 μM
[13] = system: ProQinase panel of 300 protein kinases; test: ProQinase protein kinase profiling panel; format: biochemical; conditions: 1 μM, 300 kinases
Text: Supplementary Figure Legends
technology. The assay conditions are described at
activity in DMSO control.

[14] = system: endosomal PtdIns(3)P (GFP–2×FYVEHrs probe) in U2OS cells; test: GFP–2×FYVEHrs probe localization on endosomes, fixed U2OS cells; format: cell-based; conditions: for loss of endosomal localization of GFP–2×FYVEHrs: 1 h
Description: U20S cell line was kindly provided by John Rouse (MRC Protein Phosphorylation and Ubiquitylation Unit, University of Dundee, Dundee, U.K.). […] The virus was harvested 48 h after transfection and applied to U20S cells in the presence of 10 μg/ml polybrene. Cells were selected with 10 μg/ml puromycin before single cell colony selection to identify low expression GFP–FYVEHrs clones. U2OS Flp/In cell line was kindly provided by John Rouse. Cells were cultured in McCoy medium supplemented with 10% (v/v) FBS, 2 mM L-glutamine, 100 U/ml penicillin and 0.1 mg/ml streptomycin. Stable cell lines expressing doxycycline-inducible proteins were generated using the Flp-In™ T-REx™ system (Invitrogen). Stable transfected clones were selected using 0.01 mM hygromycin in cell medium. Protein expression was induced by adding 0.01 mg/ml doxycycline in the medium for 24 h prior to cell lysis. Inhibitor treatment was carried out as described in the Figure legends. The cells were lysed in buffer containing 50 mM Tris/HCl (pH 7.5), 150 mM NaCl, 1 mM EDTA, 1 mM EGTA, 1 mM sodium orthovanadate, 10 mM sodium glycerophosphate, 50 mM sodium fluoride, 10 mM sodium pyrophosphate, 0.27 M sucrose, 0.1% 2-mercaptoethanol, 1 mM benzamidine and 0.1 mM PMSF. Lysates were clarified by centrifugation at 16000 g for 10 min at 4°C. Protein concentration was calculated using Bradford assay (Thermo Scientific). Immunoblotting and immunoprecipitation were performed using standard procedures. The signal was developed using the ECL Western Blotting Detection kit (GE Healthcare) on Hyperfilm ECL film (GE Healthcare).
Cells were cultured on glass coverslips and processed for immunocytochemistry using standard protocols. […] For experiments quantifying co-localization of SGK3–GFP with EEA1 (early endosome antigen 1) and localization GFP–FYVEHrs in response to inhibitor treatment, cells were permeabilized via one freeze–thaw cycle in liquid nitrogen and subsequently fixed. […]
The average cell fluorescence was calculated by dividing total fluorescence of each field by the number of the cells in the field. […]

COc1ccc(-c2ccc3c(N4CCOC[C@@H]4C)nc(N4CCOC[C@@H]4C)nc3n2)cc1CO [AZD8055]
phosphorylation of 4EBP1 at sites phosphorylated by mTORC1 [1]: marked dephosphorylation

Nc1cc(C(F)(F)F)c(-c2cc(N3CCOCC3)nc(N3CCOCC3)n2)cn1 [BKM120]
Akt phosphorylation at Ser473 and Thr308 [2]: near basal levels
phosphorylation of Akt substrate PRAS40 (Thr246) [2]: near basal levels
inhibition at 0.5 µM ([3]; Homo sapiens, U2OS, 1 h, read-out: inhibition of SGK3 activity by class I PI3K inhibitor): ~40%
phosphorylation of 4EBP1 at sites phosphorylated by mTORC1 [1]: lack of effect
inhibition of Vps34 [4]: do not inhibit

CS(=O)(=O)N1CCN(Cc2cc3nc(-c4cccc5[nH]ncc45)nc(N4CCOCC4)c3s2)CC1 [GDC-0941, 2-(1H-indazol-4-yl)-6-(4-methanesulfonyl-piperazin-1-ylmethyl)-4-morpholin-4-yl-t hieno[3,2-d]pyrimidine, reference compound]
Akt phosphorylation at Ser473 and Thr308 [2]: near basal levels
phosphorylation of Akt substrate PRAS40 (Thr246) [2]: near basal levels
effect on SGK3 localization on endosomes ([5]; 0.5 μM GDC-0941 alone or with 1 μM VPS34-IN1, time-lapse): did not change significantly
effect on SGK3 activity and phosphorylation at 1 min ([3]; 0.5 μM GDC-0941, 1 min time point): little effect
time to near maximal inhibition of SGK3 activity ([3]; 0.5 μM GDC-0941, time course): 2 min
phosphorylation of 4EBP1 at sites phosphorylated by mTORC1 [1]: lack of effect
effect on IGF1-induced plasma membrane recruitment of GFP–PHAkt1 [6]: blocked
inhibition of Vps34 [4]: do not inhibit
effect on endosomal localization of GFP–2×FYVEHrs ([7]; 0.5 μM GDC-0941 alone or with 1 μM VPS34-IN1, up to 60 min, live imaging): had no effect
NDRG1 phosphorylation at Thr346 [8]: significantly suppressed

CNc1nc(-c2ccc3c(N)n[nH]c3c2)cc(N2C[C@@H](C(=O)NC3CCCCC3)CC[C@H]2C)n1 [GSK2334470, reference compound]
SGK3 activity after PDK1 inhibitor ([3]; 1 μM, 1 h, U2OS): near basal levels
SGK3 T-loop and hydrophobic motif phosphorylation [9]: near basal levels

CC(C)(O)CNc1ncc(-c2ccnc(Nc3ccnc(Cl)c3)n2)c(CC2CC2)n1 [VPS34-IN1, 1-[{2-[(2-chloropyridin-4yl)amino]-4′-(cyclopropylmethyl)-[4,5′-bipyrimidin]-2′-yl}amino]-2-methyl-propan-2-ol]
inhibition of protein kinases, Dundee panel [10]: did not significantly inhibit
inhibition of SGK2 activity [11]: did not inhibit
inhibition of lipid kinases, Dundee panel [12]: did not significantly inhibit
Akt phosphorylation at Ser473 and Thr308 [2]: had no effect
phosphorylation of Akt substrate PRAS40 (Thr246) [2]: had no effect
time to dispersal of SGK3 from the endosomes ([5]; 1 μM, time-lapse, U2OS): ≤ 1 min
time until dispersal of endosome-localized GFP–SGK3 is essentially complete ([5]; live cell imaging, U2OS): 60 to 120 s
reduction in SGK3 activity ([3]; 0.1 μM VPS34-IN1, 1 h, U2OS): ~ 40%
reduction in SGK3 activity ([3]; 1 μM VPS34-IN1, 1 h, U2OS): ~ 60%
time to 50% reduction of SGK3 activity ([3]; 1 μM VPS34-IN1, time course): ≤ 15 s
time to maximal suppression of SGK3 activity ([3]; 1 μM VPS34-IN1, time course): ≤ 1 min
decrease in SGK3 activity on VPS34-IN1 treatment ([3]; U2OS, concentration not given): 50–60%
time to nearly maximal reduction in SGK3 activity and phosphorylation ([3]; VPS34-IN1, as stated in Discussion): ≤ 30 s
effect on IGF1-induced plasma membrane recruitment of GFP–PHAkt1 [6]: had no impact
inhibition of protein kinases, ProQinase panel [13]: did not significantly inhibit
SGK3 T-loop and hydrophobic motif phosphorylation [9]: commensurate decrease
loss of SGK3 phosphorylation ([9]; within 1 min): 50–60%
effect on GFP–2×FYVEHrs localization ([14]; 0.01 μM): weak effect
loss of endosomal localization of GFP–2×FYVEHrs ([14]; 0.1 μM): ~ 50%
loss of endosomal localization of GFP–2×FYVEHrs ([14]; 1.0 μM): ~ 80%
time to near maximal dispersal of endosomal GFP–2×FYVEHrs ([7]; 1 μM, live imaging, U2OS): ≤ 2 min
time to significant dispersal of endosomal GFP–2×FYVEHrs ([7]; 1 μM, live imaging, U2OS): ≤ 1 min
time until dispersal of endosome-localized GFP–2×FYVEHrs is essentially complete ([7]; live cell imaging, U2OS): 60 to 120 s
NDRG1 phosphorylation at Thr346 [8]: only affected moderately
